Measurements from patent publication US20050171028A1, “Thioketals and thioethers for inhibiting the expression of VCAM-1” (Atherogenics Pharmaceuticals, Inc., priority 2000, published 2005).

Experiments:
Format in all cases: cell-based
VCAM-1 = VCAM-1 assay: enzyme immunoassay of TNF-alpha induced VCAM-1 expression in endothelial cells; conditions: Homo sapiens, Endothelial cell; HAEC stimulated with TNF-alpha (1 ng/ml), about 16 hours with compound; read-out: VCAM-1 IC50 or % inhibition at
Experimental: The VCAM-1 assay is an enzyme immunoassay to detect tumor necrosis factor alpha (TNF-alpha) induced Vascular Cell Adhesion Molecule (VCAM-1) expression in endothelial cells.
(§1) Human aortic endothelial cells (HAEC) were purchased from Clonetics and maintained in EGM media (Clonetics) supplemented with 5% fetal bovine serum (FBS). In a typical experiment, cells were seeded in 96-well plates. The next day cells were stimulated with TNF-alpha (1 ng/ml) purchased from Boehringer Mannheim in the presence or absence of compounds dissolved in dimethylsulphoxide (DMSO). To establish a dose curve for each compound, four concentrations in 2 fold increments were used. Cells were exposed to TNF-α and compounds for approximately 16 hours. The next day, cells were examined under microscope to score for visual signs of toxicity.
Media was discarded and the cells were washed once with Hanks buffered saline solution (HBSS)/phosphate buffered solution (PBS) 91:1). Primary mouse monoclonal antibody against VCAM-1 purchased from Southern Biotechnology Associates (0.25 μg/ml in HBSS/PBS+5% FBS) was added and incubated at 37° C. for 30 minutes. Cells were washed with HBSS/PBS three times, and secondary antibody horse radish peroxidase (HRP)-conjugated goat anti-mouse IgG purchased from Southern Biotechnology Associates (1:500 in HBSS/PBS+5% FBS) was added and incubated at 37° C. for 30 minutes. Cells were washed with HBSS/PBS four times and peroxidase substrate 3.3′,5,5′-tetramethyl-benzidine (TMB) was added and incubated in the dark at room temperature until there was adequate blue color development. The length of incubation time was typically 5-15 minutes. 2 N sulfuric acid was added to stop the color development and the data was collected by reading the absorbance at O.D. 450 nm. The result was expressed as the percentage of control sample (cells stimulated by TNF without any compound).
(§2) The degree of inhibition of various compounds, including the compounds prepared in the foregoing examples, using the assays described in Examples 6-9, are provided in Table IX. Results are expressed in micromolar quantities.

[1] = test system: Human aortic endothelial cells (HAEC); assay: LD50 (toxicity to cells; visual signs of toxicity scored in the VCAM-1 assay)
Experimental: as §1, §2

ApoB/HepG2 = assay: Lipid screen: ApoB ELISA on media of treated HEPG2 cells; conditions: Homo sapiens; HEPG2 cells treated 24 hours; ApoB accumulation in media as percentage of control; read-out: ApoB/Hep G2 IC50 or % inhibition at
Experimental: HEPG2 cell was started in 10 ml of MEM, 10% FBS, 1 mM Sodium Pyruvate. The cells were incubated in a tissue culture incubator. The cells were split into 4×96-wells plate in MEM, 10% FBS, 1 mM Sodium Pyruvate and allowed to grow to about 50% confluency and then removed.
The cells were treated with the desired concentration of compounds in 100 μl DMEM, 1% RSA for 24 hours. The compounds are dissolved in DMSO.
On the same day, 4×96-wells NuncImmunoSorb plate is coated with 100 μl of mouse anti-human ApoB monoclonal 1D1 (1:1000 dilution in 1×PBS, pH 7.4). The coating is allowed to stand overnight.
The coated plate is washed 3 times with 1×PBS, pH 7.4, −0.05% Tween 20. 100 μl of the standards is added to the selected wells. ApoB standards are prepared at 6.25, 3.12, 1.56, 0.78, 0.39 ng, and each concentration is done in triplicates.
90 μl of 1×PBS, pH 7.4, −0.05% Tween 20 is added to each well corresponding to the sample. 10 μl of media is transferred from the treated HEPG2 plates to the ApoB ELISA plate. The plate is incubated at room temperature for 2 hours, rocking gently.
Wash the coated plate 3× with 1×PBS, pH 7.4, −0.05% Tween 20. Add 100 μl of sheep anti-human ApoB polyclonal from Boehringer Mannheim. (1:2000 dilution in 1×PBS, pH 7.4, −0.05% Tween 20). Incubate at room temperature for 1 hour, rocking gently. Wash the coated plate 3× with 1×PBS, pH 7.4, −0.05% Tween 20. Add 100 μl of rabbit anti-sheep IgG (1:2000 dilution in 1×PBS, pH 7.4, −0.05% Tween 20). Incubate at room temperature for 1 hour, rocking gently. Wash the coated plate 3× with 1×PBS, pH 7.4, −0.05% Tween 20. Add 100 μl of substrate (10 ml of distilled water, 100 μl of TMB (10 mg/ml), and 1 μl of hydrogen peroxide). Allow color to emerge and stop reaction with 25 ul of 8N sulfuric acid. Wells are read with MicroPlate Reader @ […]. Graph accumulation of ApoB in media as a percentage of control for each sample and their concentration. A determination of IC50 is obtained from the graph.

Row | SMILES | IC50 (VCAM-1) [µM] | LD50 at [1] [µM] | IC50 (ApoB/HepG2) [µM]
1 | CC(C)(Sc1cc(C(C)(C)C)c(O)c(C(C)(C)C)c1)Sc1cc(C(C)(C)C)c(OCC2OC(O)[C@@H](O)[C@H]2O)c(C(C)(C)C)c1 (some centres unmarked) | 8 | – | –
2 | CC(C)(Sc1cc(C(C)(C)C)c(O)c(C(C)(C)C)c1)Sc1cc(C(C)(C)C)c(OCC(O)CS(=O)(=O)O)c(C(C)(C)C)c1 (centres unmarked) | 10 | 50.0 | –
3 | CCN(CC)C(=O)c1ccc(CSc2cc(C(C)(C)C)c(O)c(C(C)(C)C)c2)cc1 | 12.5 | – | 40
4 | CC(C)(Sc1cc(C(C)(C)C)c(O)c(C(C)(C)C)c1)Sc1cc(C(C)(C)C)c(OCC(O)COC(=O)C(O)C(O)C(O)C(O)CO)c(C(C)(C)C)c1 (centres unmarked) | 7 | 50.0 | 30
5 | CC(C)(Sc1cc(C(C)(C)C)c(O)c(C(C)(C)C)c1)Sc1cc(C(C)(C)C)c(OC[C@@H](O)[C@@H](O)[C@@H](O)CO)c(C(C)(C)C)c1 | 12.5 | 25.0 | 6
6 | CN(C)C(=O)c1ccc(CSc2cc(C(C)(C)C)c(O)c(C(C)(C)C)c2)cc1 | 12.5 | 50.0 | 85
